Results taken from PubChem BioAssay AID330 (DTP/NCI, 2004).
“And” between values parts separate entries of the source, which are not always exact repeats. Equal values may be shown once. Inconclusive results and toxic doses are left out. The calls were made as follows: active = survival T/C of 150% or more; inactive = T/C below 125% in these data.

Tested on: P388 leukemia ip, CD2F1 mice, survival T/C
Assay: NCI In Vivo Anticancer Drug Screen. Data for tumor model P388 Leukemia (intraperitoneal) in CD2F1 (CDF1) mice
Details: endpoint: median survival time, higher = longer survival
Method in brief: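 Mice carrying the transplanted tumor received test compound or vehicle. Survival was recorded in each group, and the value is the treated-group measurement divided by that of the vehicle-treated control group.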

[1] = dose: 50.0 mg/kg/injection, schedule: Q01DX005 (ip), vehicle: saline
[2] = dose: 100.0 mg/kg/injection, schedule: Q04DX002 (ip), vehicle: saline with Tween-80
[3] = dose: 200.0 mg/kg/injection, schedule: Q04DX002 (ip), vehicle: saline with Tween-80
[4] = dose: 50.0 mg/kg/injection, schedule: Q01DX009 (ip), vehicle: saline with Tween-80
[5] = dose: 100.0 mg/kg/injection, schedule: Q01DX009 (ip), vehicle: saline with Tween-80
[6] = dose: 50.0 mg/kg/injection, schedule: Q01DX005 (ip), vehicle: Klucel (hydroxypropylcellulose) (HPC)
[7] = dose: 100.0 mg/kg/injection, schedule: Q01DX005 (ip), vehicle: Klucel (hydroxypropylcellulose) (HPC)
[8] = dose: 200.0 mg/kg/injection, schedule: Q01DX005 (ip), vehicle: Klucel (hydroxypropylcellulose) (HPC)
[9] = dose: 60.0 mg/kg/injection, schedule: Q01DX005 (ip), vehicle: saline with Tween-80
[10] = dose: 120.0 mg/kg/injection, schedule: Q01DX005 (ip), vehicle: saline with Tween-80
[11] = dose: 240.0 mg/kg/injection, schedule: Q01DX005 (ip), vehicle: saline with Tween-80
[12] = dose: 200.0 mg/kg/injection, schedule: Q01DX009 (ip), vehicle: saline with Tween-80
[13] = dose: 400.0 mg/kg/injection, schedule: Q01DX009 (ip), vehicle: saline with Tween-80
[14] = dose: 50.0 mg/kg/injection, schedule: Q01DX005 (ip), vehicle: saline with Tween-80
[15] = dose: 100.0 mg/kg/injection, schedule: Q01DX005 (ip), vehicle: saline with Tween-80
[16] = dose: 200.0 mg/kg/injection, schedule: Q01DX005 (ip), vehicle: saline with Tween-80
[17] = dose: 50.0 mg/kg/injection, schedule: Q01DX009 (ip), vehicle: other

Measured: T/C

COC(=O)C1CC(C)N1C(C)C (centres undefined)
inactive: [1] 95 % of control | dose: 100.0 mg/kg/injection, schedule: Q01DX005 (ip), vehicle: saline 97 % of control | dose: 200.0 mg/kg/injection, schedule: Q01DX005 (ip), vehicle: saline 100 % of control

CCNCC1c2ccccc2-c2nc3ccccc3nc2-c2ccccc21
inactive: [2] 102 % of control | [3] 98 % of control

CC1(c2ccc(-c3ccccc3)cc2)NC(=O)NC1=O (centres undefined)
inactive: dose: 25.0 mg/kg/injection, schedule: Q01DX009 (ip), vehicle: saline with Tween-80 91 % of control | [4] 86 % of control | [5] 91 % of control

CC1(C)C=Cc2c(cc(O)c3c(=O)c4cccnc4oc23)O1
inactive: [6] 90 % of control | [7] 102 % of control | [8] 90 % of control

O=c1[nH]cnc2ncnn12
inactive: dose: 25.0 mg/kg/injection, schedule: Q01DX009 (ip), vehicle: suspension in saline 97 % of control | dose: 50.0 mg/kg/injection, schedule: Q01DX009 (ip), vehicle: suspension in saline 93 % of control | dose: 200.0 mg/kg/injection, schedule: Q01DX009 (ip), vehicle: suspension in saline 90 % of control

O=C1CCCc2c1cc(C1CCCC1)c1ccccc21
inactive: dose: 60.0 mg/kg/injection, schedule: Q01DX005 (ip), vehicle: Klucel (hydroxypropylcellulose) (HPC) 104 % of control | dose: 120.0 mg/kg/injection, schedule: Q01DX005 (ip), vehicle: Klucel (hydroxypropylcellulose) (HPC) 94 % of control | dose: 240.0 mg/kg/injection, schedule: Q01DX005 (ip), vehicle: Klucel (hydroxypropylcellulose) (HPC) 101 % of control

CCN1C(SC)=NC(=O)C1(c1ccc(C)cc1)c1ccc(C)cc1
inactive: [6] 100 % of control | [7] 106 % of control | [8] 98 % of control

COc1ccc(S(=O)(=O)c2cc(C)c3ccc4ccccc4c3n2)cc1
inactive: [6] 101 % of control | [7] 102 % of control | [8] 98 % of control

[O-]/[N+]1=[N+](\[O-])c2ccccc2CCCc2ccccc21
inactive: [9] 102 % of control | [10] 100 % of control | [11] 88 % of control

Cc1ccc(NC(=O)c2ccc([N+](=O)[O-])cc2)c(C)c1
inactive: [5] 100 % of control | [12] 100 % of control | [13] 110 % of control

C/C=C(/C(=O)O)S(=O)(=O)O.[Ag]
inactive: dose: 20.0 mg/kg/injection, schedule: Q01DX009 (ip), vehicle: saline with Tween-80 103 % of control

Nc1nc(C2CCCC2)c(I)c(=O)[nH]1
inactive: [6] 105 % of control | [7] 108 % of control | [8] 92 % of control

CC(O)C(O)C(O)C(=O)NCc1ccccc1 (centres undefined)
inactive: [14] 100 % of control | [15] 94 % of control | [16] 99 % of control

Clc1ccc2nc(Cl)[nH]c2c1
inactive: [6] 102 % of control | [7] 100 % of control | [8] 99 % of control

[CH2+][B-]1(C)n2ccc[n+]2[B-](C)(C)[n+]2cccn21
inactive: [9] 90 % of control | [10] 98 % of control | [11] 93 % of control

O=C(NC(Cc1ccccc1)C(=O)CCC(=O)N1CCCC1C(=O)O)c1ccccc1 (centres undefined)
inactive: dose: 50.0 mg/kg/injection, schedule: Q04DX002 (ip), vehicle: saline with Tween-80 103 % of control | [2] 101 % of control | [3] 101 % of control | dose: 400.0 mg/kg/injection, schedule: Q04DX002 (ip), vehicle: saline with Tween-80 101 % of control

CCOC(=O)c1n[nH]c(C)c1CC(N)c1ccccc1 (centres undefined)
inactive: dose: 12.5 mg/kg/injection, schedule: Q01DX005 (ip), vehicle: saline with Tween-80 100 % of control | dose: 25.0 mg/kg/injection, schedule: Q01DX005 (ip), vehicle: saline with Tween-80 96 % of control

Cc1ccc(S(=O)(=O)N=S(C)C)cc1
inactive: dose: 6.25 mg/kg/injection, schedule: Q01DX009 (ip), vehicle: other 117 % of control | dose: 12.5 mg/kg/injection, schedule: Q01DX009 (ip), vehicle: other 107 % of control | dose: 25.0 mg/kg/injection, schedule: Q01DX009 (ip), vehicle: other 113 % of control | [17] 118 % of control | [4] 100 % of control | [5] 106 % of control | [12] 111 % of control | [13] 116 % of control

CCCCN1CC(=O)N2CCCC(c3ccccc3)N2C(=O)C1 (centres undefined)
inactive: [14] 103 % of control | [15] 105 % of control | [16] 103 % of control

C=C1C2CCC3C4(C)CC(OC5OC(CO)C(OS(=O)(=O)O)C(OS(=O)(=O)O)C5OC(=O)CC(C)C)CC(C(=O)O)(C(=O)O)C4CCC3(C2)C1O (centres undefined)
inactive: dose: 1.25 mg/kg/injection, schedule: Q01DX009 (ip), vehicle: saline 117 % of control | dose: 2.5 mg/kg/injection, schedule: Q01DX009 (ip), vehicle: saline 117 % of control | dose: 5.0 mg/kg/injection, schedule: Q01DX009 (ip), vehicle: saline 114 % of control

O=C1CCC2CCCCC2N1 (centres undefined)
inactive: dose: 50.0 mg/kg/injection, schedule: Q01DX009 (ip), vehicle: Klucel (hydroxypropylcellulose) (HPC) 94 % of control | dose: 100.0 mg/kg/injection, schedule: Q01DX009 (ip), vehicle: Klucel (hydroxypropylcellulose) (HPC) 86 % of control

CCN(CC)CCSCCCNc1cc(OC)cc2cccnc12
inactive: dose: 12.5 mg/kg/injection, schedule: Q01DX005 (ip), vehicle: saline 93 % of control | dose: 25.0 mg/kg/injection, schedule: Q01DX005 (ip), vehicle: saline 88 % of control | [1] 95 % of control and 98 % of control

CCOC(=O)C(CSC(c1ccccc1)(c1ccccc1)c1ccccc1)NC(=O)CCNC(=O)c1ccccc1 (centres undefined)
inactive: dose: 4.0 mg/kg/injection, schedule: Q01DX009 (ip), vehicle: other 96 % of control | dose: 8.0 mg/kg/injection, schedule: Q01DX009 (ip), vehicle: other 112 % of control | dose: 16.0 mg/kg/injection, schedule: Q01DX009 (ip), vehicle: other 101 % of control | dose: 32.0 mg/kg/injection, schedule: Q01DX009 (ip), vehicle: other 96 % of control | [17] 104 % of control | dose: 64.0 mg/kg/injection, schedule: Q01DX009 (ip), vehicle: other 98 % of control | dose: 100.0 mg/kg/injection, schedule: Q01DX009 (ip), vehicle: other 95 % of control | dose: 200.0 mg/kg/injection, schedule: Q01DX009 (ip), vehicle: other 90 % of control | dose: 400.0 mg/kg/injection, schedule: Q01DX009 (ip), vehicle: other 95 % of control

c1ccc2c(Nc3ccc4c(c3)OCO4)c3c(nc2c1)CCCC3
inactive: dose: 12.5 mg/kg/injection, schedule: Q01DX005 (ip), vehicle: Klucel (hydroxypropylcellulose) (HPC) 102 % of control | dose: 25.0 mg/kg/injection, schedule: Q01DX005 (ip), vehicle: Klucel (hydroxypropylcellulose) (HPC) 101 % of control | [6] 100 % of control and 112 % of control

Cc1nc(N)c2ncn(C3OC(CO)C(O)C3O)c2n1 (centres undefined)
inactive: dose: 6.25 mg/kg/injection, schedule: Q01DX009 (ip), vehicle: saline 100 % of control | dose: 12.5 mg/kg/injection, schedule: Q01DX009 (ip), vehicle: saline 106 % of control | dose: 25.0 mg/kg/injection, schedule: Q01DX009 (ip), vehicle: saline 109 % of control | dose: 50.0 mg/kg/injection, schedule: Q01DX009 (ip), vehicle: saline 112 % of control

O=C(c1ccc(C(F)(F)F)cc1)N1C2C3C=CC(C3)C2N1C(=O)c1ccc(C(F)(F)F)cc1 (centres undefined)
inactive: dose: 50.0 mg/kg/injection, schedule: Q04DX002 (ip), vehicle: Klucel (hydroxypropylcellulose) (HPC) 102 % of control | dose: 100.0 mg/kg/injection, schedule: Q04DX002 (ip), vehicle: Klucel (hydroxypropylcellulose) (HPC) 106 % of control | dose: 200.0 mg/kg/injection, schedule: Q04DX002 (ip), vehicle: Klucel (hydroxypropylcellulose) (HPC) 102 % of control

CC(=O)C(C=O)C(C)=O.CC(=O)CC(C)=O.CC(=O)CC(C)=O.[Ru]
inactive: dose: 15.0 mg/kg/injection, schedule: Q01DX005 (ip), vehicle: saline with Tween-80 100 % of control | dose: 30.0 mg/kg/injection, schedule: Q01DX005 (ip), vehicle: saline with Tween-80 102 % of control | [9] 104 % of control and 109 % of control
